Structures are written as SMILES.

In this test the target is T1, human LPA1 (Homo sapiens, UniProt Q92633).
T1 construct: the full-length cDNA for human LPA1 was obtained by PCR of the reverse transcription reaction; expressed in transfected cells
T1 sequence (Q92633 whole entry): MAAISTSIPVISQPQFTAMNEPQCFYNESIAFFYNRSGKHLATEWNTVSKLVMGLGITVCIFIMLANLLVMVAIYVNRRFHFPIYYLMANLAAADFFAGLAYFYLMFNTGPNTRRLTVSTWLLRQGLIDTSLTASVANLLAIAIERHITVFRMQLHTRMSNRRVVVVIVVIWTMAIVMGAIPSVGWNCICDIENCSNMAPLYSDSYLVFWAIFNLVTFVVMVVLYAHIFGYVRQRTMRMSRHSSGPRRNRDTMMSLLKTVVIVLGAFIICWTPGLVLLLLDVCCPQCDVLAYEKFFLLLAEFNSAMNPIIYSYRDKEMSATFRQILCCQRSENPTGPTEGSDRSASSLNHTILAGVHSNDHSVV
The test is described as follows: LPA1 calcium flux assay. The class given is cell-based. The note with it: CHO cells expressing human LPA1, stimulated with 10 nM LPA; read-out: HLPA1 Ca Flux IC50. An outline of the steps:
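Antagonism measured as block of 10 nM LPA-evoked calcium rise in stable human LPA1-CHO cells. After overnight serum-free culture and 1 h dye loading at 37 °C (buffer with 0.3% fatty-acid-free albumin), compound was added for 30 min at room temperature. Titration curves gave IC50.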
Background: Calcium assays in cells follow changes in intracellular calcium, usually with a dye or a luminescent sensor.
Broadly, the IC50 is the concentration needed to halve the response being measured. With `Cc1noc(-c2ccc(-c3ccc(C4(C(=O)O)CC4)cc3)cc2)c1CN(CC(C)c1ccccc1)C(=O)c1ccccc1` (stereo not shown) [Compound 1-74, 1-[4′-(4-{[Benzoyl-(2-phenyl-propyl)-amino]-methyl}-3-methyl-isoxazol-5-yl)-biphenyl-4-yl]-cyclopropanecarboxylic acid], the half-inhibitory concentration (IC50) was 1000 to 50000 nM.

Turning to `Cc1noc(-c2ccc(-c3ccc(C4(C(=O)O)CC4)cc3)cc2)c1CC(=O)NC1Cc2ccccc2C1` [Compound 1-90, 1-{4′-[4-(Indan-2-ylcarbamoylmethyl)-3-methyl-isoxazol-5-yl]-biphenyl-4-yl}-cyclopropanecarboxylic acid], the half-maximal inhibitory concentration (IC50) is < 300 nM.

Consider `Cc1noc(-c2ccc(-c3ccc(CC(=O)O)cc3)cc2)c1[C@H](O)CSCc1ccccc1` [Compound 1-272, {4′-[4-((S)-2-Benzylsulfanyl-1-hydroxy-ethyl)-3-methyl-isoxazol-5-yl]-biphenyl-4-yl}-acetic acid], for which the IC50 was < 300 nM.

With `Cc1noc(-c2ccc(-c3ccc(C4(C(=O)O)CC4)cc3)cc2)c1CC(=O)N(C)Cc1ccccc1F` [Compound 1-91, 1-[4′-(4-{[(2-Fluoro-benzyl)-methyl-carbamoyl]-methyl}-3-methyl-isoxazol-5-yl)-biphenyl-4-yl]-cyclopropanecarboxylic acid], the half-maximal inhibitory concentration (IC50) is < 300 nM.

As for `Cc1noc(-c2ccc(-c3ccc(CC(=O)O)cc3)cc2)c1NC(C)CCc1cccc(F)c1` (stereo not shown) [Compound 1-165, (4′-{4-[3-(3-Fluoro-phenyl)-1-methyl-propylamino]-3-methyl-isoxazol-5-yl}-biphenyl-4-yl)-acetic acid], the IC50 was < 300 nM.

`Cc1noc(-c2ccc(-c3ccc(C4(CC(=O)O)CC4)cc3)cc2)c1C(O)CC(C)(C)c1ccccc1` (stereo not shown) [Compound 1-246, (1-{4′-[4-(1-Hydroxy-3-methyl-3-phenyl-butyl)-3-methyl-isoxazol-5-yl]-biphenyl-4-yl}-cyclopropyl)-acetic acid]: the half-inhibitory concentration (IC50) fell in the range of 1000 to 50000 nM.

For the compound `Cc1cnn(Cc2c(C)noc2-c2ccc(-c3ccc(C4(C(=O)O)CC4)cc3)cc2)c1` [Compound 1-194, 1-{4′-[3-Methyl-4-(4-methyl-pyrazol-1-ylmethyl)-isoxazol-5-yl]-biphenyl-4-yl}-cyclopropanecarboxylic acid], the half-maximal inhibitory concentration (IC50) was in the range of 1000 to 50000 nM.

Turning to `Cc1noc(-c2ccc(-c3ccc(C4(C(=O)O)CC4)cc3)cc2)c1COC(=O)N[C@@H](C)c1ccccc1` [Compound 1-22, 1-{4′-[3-Methyl-4-((S)-1-phenyl-ethylcarbamoyloxymethyl)-isoxazol-5-yl]-biphenyl-4-yl}-cyclopropanecarboxylic acid], the IC50 lay within 1000 to 50000 nM.

With `Cc1noc(-c2ccc(-c3ccc(C4(C(=O)O)CC4)cc3)cc2)c1NC(=O)NCc1c(F)cccc1F` [Compound 1-16, 1-(4′-{4-[3-(2,6-Difluoro-benzyl)-ureido]-3-methyl-isoxazol-5-yl}-biphenyl-4-yl)-cyclopropanecarboxylic acid], the IC50 lay in the range of 300 to 1000 nM.

Turning to `Cc1noc(-c2ccc(-c3ccc(C(C(=O)O)C(C)C)cc3)cc2)c1CSCCc1ccccc1` (stereo not shown) [Compound 1-137, 3-Methyl-2-[4′-(3-methyl-4-phenethylsulfanylmethyl-isoxazol-5-yl)-biphenyl-4-yl]-butyric acid], the IC50 was < 300 nM.

As for `Cc1noc(-c2ccc(-c3ccc(C4(C(=O)O)CC4)cc3)cc2)c1CNC(=O)C(C)Oc1ccccc1` (stereo not shown) [Compound 1-100, 1-(4′-{3-Methyl-4-[(2-phenoxy-propionylamino)-methyl]-isoxazol-5-yl}-biphenyl-4-yl)-cyclopropanecarboxylic acid], the half-inhibitory concentration (IC50) fell in the range of 300 to 1000 nM.

For the compound `CCCOc1cccc(Nc2c(C)noc2-c2ccc(-c3ccc(C4(C(=O)O)CC4)cc3)cc2)n1` [Compound 1-293, 1-{4′-[3-Methyl-4-(6-propoxy-pyridin-2-ylamino)-isoxazol-5-yl]-biphenyl-4-yl}-cyclopropanecarboxylic acid], the half-maximal inhibitory concentration (IC50) is < 300 nM.

In the case of `Cc1noc(-c2ccc(-c3ccccc3C3(C(=O)O)CC3)cc2)c1C(O)CCCc1ccccc1` (stereo not shown) [Compound 1-203, 1-{4′-[4-(1-Hydroxy-4-phenyl-butyl)-3-methyl-isoxazol-5-yl]-biphenyl-2-yl}-cyclopropanecarboxylic acid], the IC50 was in the range of 1000 to 50000 nM.

Take `Cc1noc(-c2ccc(-c3ccc(C4(C(=O)O)CC4)cc3)cc2)c1Nc1cccc(OC(C)C)[n+]1[O-]` [Compound 1-309, 1-{4′-[4-(6-Isopropoxy-1-oxy-pyridin-2-ylamino)-3-methyl-isoxazol-5-yl]-biphenyl-4-yl}-cyclopropanecarboxylic acid]: the IC50 is 1000 to 50000 nM.

Consider `Cc1noc(-c2ccc(-c3ccc(C4(C(=O)O)CC4)cc3)cc2)c1NC(C)CCc1cccc(Cl)c1` (single isomer, unassigned) [Compound 1-239, 1-(4′-{4-[3-(3-Chloro-phenyl)-1-methyl-propylamino]-3-methyl-isoxazol-5-yl}-biphenyl-4-yl)-cyclopropanecarboxylic acid], for which the IC50 was < 300 nM.

Turning to `Cc1noc(-c2ccc(-c3ccc(CCC(=O)O)cc3)cc2)c1NC(C)CCc1cccc(Cl)c1` (stereo not shown) [Compound 1-193, 3-(4′-{4-[3-(3-Chloro-phenyl)-1-methyl-propylamino]-3-methyl-isoxazol-5-yl}-biphenyl-4-yl)-propionic acid], the IC50 was < 300 nM.

Take `Cc1noc(-c2ccc(-c3ccc(C4(C(=O)O)CC4)cc3)cc2)c1CS(=O)(=O)CCc1ccccc1` [Compound 1-55, 1-{4′-[3-Methyl-4-(2-phenyl-ethanesulfonylmethyl)-isoxazol-5-yl]-biphenyl-4-yl}-cyclopropanecarboxylic acid]: the half-inhibitory concentration (IC50) was < 300 nM.

As to `Cc1noc(-c2ccc(-c3ccc(C4(CC(=O)O)CC4)cc3)cc2)c1NC(C)CCc1cccc(F)c1` (stereo not shown) [Compound 1-185, [1-(4′-{4-[3-(3-Fluoro-phenyl)-1-methyl-propylamino]-3-methyl-isoxazol-5-yl}-biphenyl-4-yl)-cyclopropyl]-acetic acid], the 50% inhibitory concentration (IC50) was < 300 nM.

For `Cc1noc(-c2ccc(-c3ccc(C4(C(=O)O)CC4)cc3)cc2)c1/C=C/CC(C)c1ccccc1` (stereo not shown) [Compound 1-113, 1-{4′-[3-Methyl-4-((E)-4-phenyl-pent-1-enyl)-isoxazol-5-yl]-biphenyl-4-yl}-cyclopropanecarboxylic acid], the IC50 is 1000 to 50000 nM.

Consider `C=CCCC(C)Nc1c(C)noc1-c1ccc(-c2ccc(C3(C(=O)O)CC3)cc2)cc1` (stereo not shown) [Compound 1-227, 1-{4′-[3-Methyl-4-(1-methyl-pent-4-enylamino)-isoxazol-5-yl]-biphenyl-4-yl}-cyclopropanecarboxylic acid], for which the IC50 was < 300 nM.

For `Cc1cccc(SCC(O)c2c(C)noc2-c2ccc(-c3ccc(C4(C(=O)NS(C)(=O)=O)CC4)cc3)cc2)c1` (stereo not shown) [Compound 2-13, N-(1-{4′-[4-(1-Hydroxy-2-m-tolylsulfanyl-ethyl)-3-methyl-isoxazol-5-yl]-biphenyl-4-yl}-cyclopropanecarbonyl)-methanesulfonamide], the half-inhibitory concentration (IC50) is < 300 nM.

Consider `Cc1noc(-c2ccc(-c3ccc(C4(C(=O)O)CC4)cc3)cc2)c1C(O)/C=C/c1cccc(C(F)(F)F)c1` (stereo not shown) [Compound 1-161, 1-(4′-{4-[(E)-1-Hydroxy-3-(3-trifluoromethyl-phenyl)-allyl]-3-methyl-isoxazol-5-yl}-biphenyl-4-yl)-cyclopropanecarboxylic acid], for which the IC50 is < 300 nM.

With `Cc1noc(-c2ccc(-c3ccc(C(Cc4ccccc4)C(=O)O)cc3)cc2)c1CSCCc1ccccc1` (stereo not shown) [Compound 1-145, 2-[4′-(3-Methyl-4-phenethylsulfanylmethyl-isoxazol-5-yl)-biphenyl-4-yl]-3-phenyl-propionic acid], the half-maximal inhibitory concentration (IC50) is < 300 nM.

As to `Cc1noc(-c2ccc(-c3ccc(C4(CC(=O)O)CC4)cc3)cc2)c1C(O)COCc1cccc(C(F)(F)F)c1` (stereo not shown) [Compound 1-244, [1-(4′-{4-[1-Hydroxy-2-(3-trifluoromethyl-benzyloxy)-ethyl]-3-methyl-isoxazol-5-yl}-biphenyl-4-yl)-cyclopropyl]-acetic acid], the IC50 is < 300 nM.

On to `Cc1noc(-c2ccc(-c3ccc(C4(C(=O)O)CC4)cc3)cc2)c1NC(CCc1ccccc1)c1ccccc1` (stereo not shown) [Compound 1-214, 1-{4′-[4-(1,3-Diphenyl-propylamino)-3-methyl-isoxazol-5-yl]-biphenyl-4-yl}-cyclopropanecarboxylic acid], for which the concentration for half-maximal inhibition (IC50) was 300 to 1000 nM.

As to `CCCCOc1cccc(Nc2c(C)noc2-c2ccc(-c3ccc(C4(C(=O)O)CC4)cc3)cc2)n1` [Compound 1-295, 1-{4′-[4-(6-Butoxy-pyridin-2-ylamino)-3-methyl-isoxazol-5-yl]-biphenyl-4-yl}-cyclopropanecarboxylic acid], the 50% inhibitory concentration (IC50) was < 300 nM.

As for `Cc1noc(-c2ccc(-c3ccc(C4(C(=O)O)CC4)cc3)cc2)c1Nc1cccc(C(=O)O)n1` [Compound 1-298, 6-{5-[4′-(1-Carboxy-cyclopropyl)-biphenyl-4-yl]-3-methyl-isoxazol-4-ylamino}-pyridine-2-carboxylic acid], the concentration for half-maximal inhibition (IC50) was 1000 to 50000 nM.

Consider `Cc1noc(-c2ccc(-c3ccc(C4(C(=O)O)CC4)cc3)cc2)c1Nc1ccccn1` [Compound 1-296, 1-{4′-[3-Methyl-4-(pyridin-2-ylamino)-isoxazol-5-yl]-biphenyl-4-yl}-cyclopropanecarboxylic acid], for which the IC50 was > 50000 nM.

Take `Cc1noc(-c2ccc(-c3ccc(C4(C(=O)O)CC4)cc3)cc2)c1C[S+]([O-])CCc1ccccc1` (stereo not shown) [Compound 1-54, 1-{4′-[3-Methyl-4-(2-phenyl-ethanesulfinylmethyl)-isoxazol-5-yl]-biphenyl-4-yl}-cyclopropanecarboxylic acid]: the 50% inhibitory concentration (IC50) was < 300 nM.

As to `COc1ccc(CC(C)Nc2c(C)noc2-c2ccc(-c3ccc(C4(C(=O)O)CC4)cc3)cc2)cc1` (stereo not shown) [Compound 1-237], the concentration for half-maximal inhibition (IC50) was in the range of 1000 to 50000 nM.

Turning to `Cc1noc(-c2ccc(-c3ccc(C4(CC(=O)O)CC4)cc3)cc2)c1NC(C)CCc1c(F)cccc1Cl` (stereo not shown) [Compound 1-219, [1-(4′-{4-[3-(2-Chloro-6-fluoro-phenyl)-1-methyl-propylamino]-3-methyl-isoxazol-5-yl}-biphenyl-4-yl)-cyclopropyl]-acetic acid], the IC50 is < 300 nM.

These data come from patent US9624182B2, “Compounds as lysophosphatidic acid receptor antagonists” (Amira Pharmaceuticals, Inc., priority 2009, dated 2017).
